Counter-ions that a name gives are not always drawn.
How the values were obtained:
[1] = system: patients with stable COPD; test: BCSS (breathlessness, cough and sputum score) change from baseline in Viozan clinical trials, stratified by ADRB2 haplotype; type: in vivo, human
Excerpt: (§1) Samples for genotyping were taken from 2450 patients recruited in four Viozan™ phase III clinical trials, namely SC-397-5097, SC-397-5098, SC-397-5099 and SC-397-5163. The patient population included male and female patients, aged 40 to 80 years, with stable COPD, symptoms for ≧2 years, and a smoking history of at least 15 pack years. […] Further details about the patient population, and the study designs, are described in Laursen et al. Respiratory Medicine (2003), Vol 97, Suppl A, S23-S33. Participation in the genetics sub-study was voluntary. Patients gave separate written informed consent for the genetic analysis. Patients all consented to provide DNA for use in studying the response to Viozan™. Viozan™ is a dual agonist, targeting the β2-adrenergic receptor and the […] genes, developed for the treatment of COPD (Rennard, 2003, Respiratory Medicine, Vol 97, Suppl A, S1-S2).
Changes in COPD symptoms were assessed using the BCSS (breathlessness, cough and sputum score), also referred to as the TSS (total symptom score). Each symptom, that is breathlessness, cough and sputum, was evaluated daily by the patient and recorded in a diary using a 5-point Likert scale (ranging from 0 to 4, with the higher values indicating more sever symptoms). The three item scores were summed to calculate the BCSS total score, resulting in a value between 0 and 12. The reliability and validity of the BCSS for evaluating symptoms in COPD is discussed in Leidy et al, 2003, Respiratory Medicine, Vol 97, SupplA, S59-S70. A mean change of ±1 point on the BCSS total score represents a substantial improvement in symptom severity for patients with moderate to severe COPD (Celli et al. Respiratory Medicine, (2003) Vol 97, SupplA, S35-43).

[2] = system: patients with stable COPD; test: Serial and pre-dose FEV1 (spirometry) in Viozan phase III clinical trials, stratified by ADRB2 haplotype; type: in vivo, human
Excerpt: as §1
Pre- and post-dose FEV1 (forced expiratory volume in 1 second), the volume of air exhaled in the first second of the FVC manoeuvre (expressed in litres), measurements were taken at each study visit for all patients, as described in the clinical study protocols. Spirometry measurements were performed using a standard technique at each centre. Details about the spirometer used and the calibration records were provided by each centre. After resting for 15 minutes, slow vital capacity (SVC), forced vital capacity (FVC) and FEV1 were measured for at least three separate manoeuvres. The greatest values for each parameter were recorded.
Serial measurements were taken on day 1 (studies SC-397-5097 and SC-397-5098), weeks 8 and 12 (SC-397-5098) and weeks 14 and 26 (SC-397-5097). The AUC0-8, mean FEV1 at 8 hrs and mean maximum change from pre-dose (FEV1 max) were calculated. These measurements were used to investigate the bronchodilator properties of Viozan™, a long-acting β2-agonist.
Because serial FEV1 measurements were available for only a small number of subjects, and to increase the power of the analyses, the data was subsequently analysed in two subgroups (‘binning’) based on the haplotype pair of each patient; “C” haplotypes (i.e. patients having at least one copy of the ‘C’ haplotype) and “non-C” haplotype (i.e. patients having no ‘C’ haplotype). ‘C’ haplotype group included patients with haplotypes AC, BC and CC, whilst the non-C haplotype group included subjects with haplotypes AA, BB and AB. For the ‘binned’ haplotype analyses, subjects with one or more copies of haplotype D and E were not included, as there were few subjects with these haplotype pairs.
Assessment of the relationship between ADRB2 haplotype and the long-term FEV1 response, was achieved by comparing the pre-treatment and pre-dose baselines. The “pre-treatment” FEV1 baseline is for no prior exposure to the study drug, and was measured at day 1 (visit 2), immediately prior to treatment with Viozan™. The “pre-dose” FEV1 baseline is that measured prior to administration of drug on that day at subsequent visits, during the course of the trials, i.e. at weeks 8 and 12 (SC-397-5098) and weeks 14 and 26 (SC-397-5097). […] Observations are consistent with a trend for prolonged bronchodilation in the C haplotype subgroup and better overall long-term lung function in response to regular treatment with Viozan™ and long acting β2-agonists.
Analysis of the serial FEV1 response between first treatment and following 3 months of Viozan™ treatment was determined by subtracting the pre-treatment baseline (visit 2) from the absolute FEV1 measurements collected at visit 2 (day 1) and the combined data for week 12 (SC-397-5098) and week 14 (SC-397-5097). […] Serial FEV1 response at day 1 (visit 2) overlaps with that at 3 months post treatment, for patients in the ‘C’ haplotype subgroup. A similar response is observed for the non-C haplotype group at day 1 (visit 2). However, the serial FEV1 response, in the non-C haplotype group, appears to be reduced after 3 months of treatment. […]

[3] = system: asthmatics; details: cited from earlier work
[4] = 3 mth (SC-397-5098) and 6 mth (SC-397-5097) treatment, trend
[5] = first exposure, trials SC-397-5097 and SC-397-5098

| Structure (SMILES) | patients with a clinically significant BCSS response compared to mean placebo response ([1]; C-haplotype group share of the clinical trial population) | BCSS response in C haplotype sub-group versus non-C haplotype group and versus placebo ([1]; change from baseline to final 4 weeks, combined SC-397-5163 and SC-397-5098) | reduction in mean BCSS, 'C' Haps (AC, BC, CC) compared to 'Non-C' Haps (AA, BB, BA) ([1]; combined studies SC-397-5163 and SC-397-5098) | BCSS response in C haplotype sub-group versus non-C haplotype subgroup ([1]; study SC-397-5163, 3 month, C Haps N=84, non-C Haps N=201) | difference in mean BCSS change from baseline to final 4 weeks of treatment, Viozan versus placebo ([1]; unstratified patient population) | change in baseline (trough) FEV1 over the course of the trials, C-haplotype sub-group [2, 4] | change in baseline (trough) FEV1 over the course of the trials, subjects lacking C-haplotype [2, 4] | serial FEV1 response after 3 months of treatment, non-C haplotype group ([2]; change from pre-treatment baseline, combined week 12 and week 14 data, versus day 1) | time after treatment at which FEV1 response was observed [2, 5] [min] | time for which FEV1 continued to increase post treatment [2, 5] | time of maximum FEV1 increase post study drug [2, 5] | serial FEV1 response, patients with BB haplotype pair ([2]; first exposure, BB (N=13), compared with other haplotype pairs) | serial FEV1 response, patients with BC haplotype ([2]; first exposure, BC (N=21)) | difference in FEV1 between subgroups stratified by ADRB2 haplotype pair ([2]; serial FEV1 at first exposure, haplotype pairs AA, AC, BA, BB, BC) | lung function response, 2/2 haplotype ([3]; 2/2 corresponds to AA) | lung function response, 4/4 haplotype ([3]; 4/4 corresponds to BB) | lung function response, 4/6 haplotype ([3]; 4/6 corresponds to BC) |
| --- | --- | --- | --- | --- | --- | --- | --- | --- | --- | --- | --- | --- | --- | --- | --- | --- | --- |
| O=c1[nH]c2c(O)ccc(CCNCCS(=O)(=O)CCCOCCc3ccccc3)c2s1 [Viozan, Sibenadet HCl] | approximately 30% | significantly better | up to 0.6 | significantly better | neither statistically significant, nor considered to be of clinical importance | increase | decrease slightly | reduced | 5 | up to 2 hours | one to two | smaller | greatest response | approximately 100 cc |  |  |  |
| CC(C)(C)NCC(O)c1ccc(O)c(CO)c1 (centres unmarked) [albuterol, albuterol sulphate] |  |  |  |  |  |  |  |  |  |  |  |  |  |  | intermediate response | lowest response | best response |
